Drawing on patent US8022069B2, “Substituted piperidines as renin inhibitors” (Novartis AG, priority 2008, dated 2011), this text covers IC50 for two molecules.

A word on the IC50: it is the point on the concentration scale where inhibition reaches its midpoint.

The structures appear in SMILES notation.

This test deals with T1, renin (Homo sapiens, UniProt P00797).
T1 construct: This test measures the formation of angiotensin I in human plasma; from tissue; host or cells: human plasma
T1 sequence (P00797 67-406): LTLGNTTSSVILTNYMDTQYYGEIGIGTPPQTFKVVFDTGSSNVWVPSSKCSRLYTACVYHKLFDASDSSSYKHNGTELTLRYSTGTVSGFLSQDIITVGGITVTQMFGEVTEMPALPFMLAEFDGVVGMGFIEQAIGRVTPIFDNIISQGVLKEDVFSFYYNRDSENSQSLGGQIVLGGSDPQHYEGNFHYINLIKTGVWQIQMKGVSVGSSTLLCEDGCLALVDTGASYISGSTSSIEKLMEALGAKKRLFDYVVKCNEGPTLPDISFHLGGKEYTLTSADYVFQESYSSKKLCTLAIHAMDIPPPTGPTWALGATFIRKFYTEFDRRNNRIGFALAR
Briefly: formation of angiotensin I in human plasma, radioimmunoassay (Nussberger et al.). The test is classed as biochemical. The conditions noted are these: values in the range of about, read-out: IC50, inhibition of the formation of angiotensin I. As for the experimental part: The effect of renin inhibitors is detected inter alia experimentally by means of in vitro tests where the reduction in the formation of angiotensin I is measured in various systems (human plasma, purified human renin together with synthetic or natural renin substrate). The following in vitro test of Nussberger et al. (1987) J. Cardiovascular Pharmacol., Vol. 9, pp. 39-44, is used inter alia. This test measures the formation of angiotensin I in human plasma. The amount of angiotensin I formed is determined in a subsequent radioimmunoassay. The effect of inhibitors on the formation of angiotensin I is tested in this system by adding various concentrations of these substances. The IC50 is defined as the concentration of the particular inhibitor which reduces the formation of angiotensin I by 50%. The compounds of the present invention show inhibitory effects in the in vitro systems at minimal concentrations of about 10^−6 mol/l to about 10^−10 mol/l.

As to `CCO[C@H](C)COCc1ccc([C@H]2C[C@@H](CC(C)(C)C(=O)NC)NC[C@@H]2OCc2ccc3c(c2)N(CCCOC)CCO3)cc1` [Example 5, 3-{(2S,4R,5R)-4-[4-((R)-2-Ethoxy-propoxymethyl)-phenyl]-5-[4-(3-methoxy-propyl) -3,4-dihydro-2H-benzo[1,4]oxazin-6-ylmethoxy]-piperidin-2-yl}-2,2,N-trimethyl-propionamide], the IC50 lay within 0.1 to 10 nM. The figure for `CCO[C@H](C)COCc1ccc([C@H]2C[C@H](CCn3cnnc3)NC[C@@H]2OCc2ccc3c(c2)N(CCCOC)CCO3)cc1` [Example 9, 6-[(3R,4R,6R)-4-[4-((R)-2-Ethoxy-propoxymethyl)-phenyl]-6-(2-[1,2,4]triazol-4-yl-ethyl) -piperidin-3-yloxymethyl]-4-(3-methoxy-propyl)-3,4-dihydro-2H-benzo[1,4]oxazine] is 0.1 to 10 nM.
